Columns and labels:
Experiment in all cases: emission titration (737 nm), Bard equation
Settings in all cases: K+ (50 mM potassium phosphate), pH 7, enantiomer by table order, per base
[1] = tested on: d(CGCAAATTTGCG)2 (DNA, duplex) CGCAAATTTGCG
[2] = tested on: d(CGCGAATTCGCG)2 (DNA, duplex) CGCGAATTCGCG
[3] = tested on: d(ATTATTATTATATTA)/d(TAATATAATAATAAT) (AT DNA) (DNA, duplex) ATTATTATTATATTA/TAATATAATAATAAT
[4] = tested on: d(GCGCGCGCGC)2; (GC)5 (DNA, duplex) GCGCGCGCGC

## Cc1cnc2c(ccc3c(C)c(C)cnc32)c1C.Cc1cnc2c(ccc3c(C)c(C)cnc32)c1C.[Cr+3].c1ccc2nc3c4cccnc4c4ncccc4c3nc2c1
[1]; site size n 1.92 ± 0.04 base pairs
  KDNA: 1.7e+06 M⁻¹
[1]; site size n 2.10 ± 0.09 base pairs
  KDNA: 480000 M⁻¹
[2]; site size n 1.6 ± 0.1 base pairs
  KDNA: 1.4e+06 M⁻¹
[2]; site size n 1.7 ± 0.1 base pairs
  KDNA: 510000 M⁻¹
[3]; site size n 2.25 ± 0.05 base pairs
  KDNA: 4e+06 M⁻¹
[3]; site size n 2.28 ± 0.05 base pairs
  KDNA: 3e+06 M⁻¹
[4]; site size n 3.1 ± 0.1 base pairs
  KDNA: 770000 M⁻¹
[4]; site size n 4.8 ± 0.2 base pairs
  KDNA: 610000 M⁻¹
